Read-outs that look alike come from different tables or passages of the source.
Legend:
5HT2C receptors = target: T1, 5HT2C receptors (Homo sapiens, UniProt P28335); assay: Human 5-HT2C functional high throughput screening assay in CHO-K1 cells (calcium flux); type: cell-based; design: expressed in transfected cells; host or cells: CHO-K1 cells; details: for Emax: 5-HT2C, maximum functional response as percentage relative to the effect of serotonin; for EC50: CHO-K1 cells, calcium flux
T1 sequence (P28335 33-458): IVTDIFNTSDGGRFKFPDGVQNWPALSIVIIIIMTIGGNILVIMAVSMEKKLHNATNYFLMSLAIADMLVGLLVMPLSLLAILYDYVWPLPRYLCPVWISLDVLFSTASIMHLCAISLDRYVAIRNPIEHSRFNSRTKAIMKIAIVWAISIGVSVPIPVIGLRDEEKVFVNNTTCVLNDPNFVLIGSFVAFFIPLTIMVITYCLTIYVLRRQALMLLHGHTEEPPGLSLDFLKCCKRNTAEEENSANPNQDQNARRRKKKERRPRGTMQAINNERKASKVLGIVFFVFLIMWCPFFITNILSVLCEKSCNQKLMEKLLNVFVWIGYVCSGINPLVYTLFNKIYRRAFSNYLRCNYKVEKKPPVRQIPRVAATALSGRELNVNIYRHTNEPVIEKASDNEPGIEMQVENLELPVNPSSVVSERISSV
Procedure, shortened: (§1)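 Agonism is measured as intracellular calcium increase in receptor-overexpressing CHO-K1 cells, read by FLIPR at 25 °C. Responses are expressed relative to serotonin, with EC50 and Emax derived from a 4-parameter logistic curve over 6 concentrations starting at 10 μM.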

5HT2B receptors = target: T2, 5HT2B receptors (Homo sapiens, UniProt P41595); assay: Human 5-HT2B functional high throughput screening assay in CHO-K1 cells (calcium flux); type: cell-based; details: for EC50: CHO-K1 cells, calcium flux
T2 construct: expressed in transfected cells; host or cells: CHO-K1 cells
T2 sequence (P41595 whole entry): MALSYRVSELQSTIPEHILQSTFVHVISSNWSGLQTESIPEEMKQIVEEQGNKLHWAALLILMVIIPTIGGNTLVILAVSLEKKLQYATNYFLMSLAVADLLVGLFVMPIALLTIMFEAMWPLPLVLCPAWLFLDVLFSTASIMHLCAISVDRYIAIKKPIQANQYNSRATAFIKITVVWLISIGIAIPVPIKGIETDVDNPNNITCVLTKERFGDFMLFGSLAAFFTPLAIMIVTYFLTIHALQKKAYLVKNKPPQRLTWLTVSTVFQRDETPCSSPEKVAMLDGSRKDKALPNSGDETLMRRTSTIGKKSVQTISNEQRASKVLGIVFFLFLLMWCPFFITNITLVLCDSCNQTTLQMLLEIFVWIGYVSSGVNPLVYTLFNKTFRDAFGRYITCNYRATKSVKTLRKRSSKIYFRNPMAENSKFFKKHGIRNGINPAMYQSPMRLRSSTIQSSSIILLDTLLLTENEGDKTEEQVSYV
Procedure, shortened: as §1

[1] = 5-HT2C agonist activity, read-out: EC50
[2] = 5-HT2B agonist activity, read-out: EC50
[3] = 5-HT2B, maximum functional response as percentage relative to the effect of serotonin
[4] = CHO-K1, 5-HT2B, maximum functional response as percentage relative to the effect of serotonin, read-out: Emax

| EC50 (5HT2C receptors; [1]) [nM] | Emax (5HT2C receptors; CHO-K1, read-out: Emax) [%] | EC50 (5HT2B receptors; [2]) [nM] | Emax (5HT2B receptors; [3]) | Emax (5HT2B receptors; [4]) [%] | Compound | Emax (5HT2C receptors; CHO-K1) [%] | EC50 (5HT2C receptors; EC50, 5-HT2C agonist activity) [nM] | Emax (5HT2B receptors; CHO-K1) [%] | EC50 (5HT2B receptors; EC50, 5-HT2B agonist activity) [nM] | Emax (5HT2C receptors) [%] |
| --- | --- | --- | --- | --- | --- | --- | --- | --- | --- | --- |
| – | – | – | – | – | Clc1cc(Br)c2c(c1)[C@H]1CNC[C@@H]1CCO2 (relative stereo) [Example 394, Trans-7-bromo-9-chloro-2,3,3a,4,5,10b-hexahydro-1H-[1]benzoxepino[4,5-c]pyrrole] | 90 | 20 | 45 | 100 | – |
| 30 | > 120 | > 10000 | inactive | – | CCc1ccc(-c2ccc3c(c2)C(=O)NC[C@@H]2CN(C)C[C@@H]32)cc1 (relative stereo) [Example 139, Trans-8-(4-ethylphenyl)-2-methyl-1,2,3,3a,4,5-hexahydrobenzo[e]pyrrolo[3,4-c]azepin-6(10bH)-one] | – | – | – | – | – |
| – | – | – | – | – | COc1cccc2c1[C@H]1CN(C)C[C@@H]1CCO2 (relative stereo) [Example 273, Trans-10-methoxy-2-methyl-2,3,3a,4,5,10b-hexahydro-1H-[1]benzoxepino[4,5-c]pyrrole] | > 120 | 10 | 35 | 100 | – |
| 0.4 | > 120 | > 10000 | inactive | – | O=C1NC[C@@H]2CNC[C@H]2c2ccc(-c3cccc(CCO)c3)cc21 (relative stereo) [Example 252, Trans-8-(3-(2-hydroxyethyl)phenyl)-1,2,3,3a,4,5-hexahydrobenzo[c]pyrrolo[3,4-e]azepin-6(10bH)-one] | – | – | – | – | – |
| – | – | – | – | – | CN1C[C@@H]2CCCc3ccccc3[C@@H]2C1 (relative stereo) [Example 269, Cis-2-methyl-1,2,3,3a,4,5,6,10b-octahydrobenzo[3,4]cyclohepta[1,2-c]pyrrole] | > 120 | 100 | 50 | 800 | – |
| 6.6 | > 120 | > 10000 | inactive | – | CN1C[C@H]2CNC(=O)c3cc(-c4ccc(F)c(F)c4)ccc3[C@@H]2C1 (relative stereo) [Example 78, Trans-8-(3,4-difluorophenyl)-2-methyl-1,2,3,3a,4,5-hexahydrobenzo[e]pyrrolo[3,4-c]azepin-6(10bH)-one] | – | – | – | – | – |
| 2000 | 110 | > 10000 | inactive | – | O=C1NC[C@@H]2CN(Cc3ccccc3)C[C@H]2c2ccc(-c3nnco3)cc21 (relative stereo) [Example 136, Trans-2-benzyl-8-(1,3,4-oxadiazol-2-yl)-1,2,3,3a,4,5-hexahydrobenzo[e]pyrrolo[3,4-c]azepin-6(10bH)-one] | – | – | – | – | – |
| 7 | > 120 | > 10000 | inactive | – | CN1C[C@@H]2CNC(=O)c3cc(-c4cccc(S(C)(=O)=O)c4)ccc3[C@H]2C1 [Example 228, (3aS,10bS)-2-Methyl-8-(3-(methylsulfonyl)phenyl)-1,2,3,3a,4,5-hexahydrobenzo[c]pyrrolo[3,4-e]azepin-6(10bH)-one] | – | – | – | – | – |
| 60 | > 120 | > 10000 | inactive | – | CN1C[C@H]2CNC(=O)c3cc(Oc4ccc(F)cc4)ccc3[C@@H]2C1 (relative stereo) [Example 243, Trans-8-(4-fluorophenoxy)-2-methyl-1,2,3,3a,4,5-hexahydrobenzo[c]pyrrolo[3,4-e]azepin-6(10bH)-one] | – | – | – | – | – |
| – | – | – | – | – | CN1C[C@H]2CNC(=O)c3c(OC(F)(F)F)cccc3[C@@H]2C1 (relative stereo) [Example 110, Trans-2-methyl-7-(trifluoromethoxy)-1,2,3,3a,4,5-hexahydrobenzo[c]pyrrolo[3,4-e]azepin-6(10bH)-one] | > 120 | – | 15 | 900 | – |
| – | – | – | – | – | O=S(=O)(c1ccc(Br)s1)N1Cc2cccnc2[C@@H]2CNC[C@H]2C1 (relative stereo) [Example 360, Trans-6-[(5-bromo-2-thienyl)sulfonyl]-5,6,7,7a,8,9,10,10a-octahydropyrido[3,2-c]pyrrolo[3,4-e]azepine] | 80 | 10 | 20 | 300 | – |
| 8 | > 120 | > 10000 | inactive | – | O=C1NC[C@@H]2CNC[C@H]2c2ccc(-c3c(F)cccc3F)cc21 (relative stereo) [Example 276, Trans-8-(2,6-difluorophenyl)-1,2,3,3a,4,5-hexahydrobenzo[e]pyrrolo[3,4-c]azepin-6(10bH)-one] | – | – | – | – | – |
| 500 | 80 | 800 | – | 30 | O=S(=O)(c1ccccc1C(F)(F)F)N1Cc2cccnc2[C@@H]2CNC[C@H]2C1 (relative stereo) [Example 365, Trans-6-{[2-(trifluoromethyl)phenyl]sulfonyl}-5,6,7,7a,8,9,10,10a-octahydropyrido[3,2-c]pyrrolo[3,4-e]azepine] | – | – | – | – | – |
| – | – | – | – | – | O=S(=O)(c1ccccc1Cl)N1Cc2cccnc2[C@@H]2CNC[C@H]2C1 (relative stereo) [Example 362, Trans-6-[(2-chlorophenyl)sulfonyl]-5,6,7,7a,8,9,10,10a-octahydropyrido[3,2-c]pyrrolo[3,4-e]azepine] | 80 | 100 | 75 | 300 | – |
| 90 | 90 | 600 | – | 70 | COc1cccc(S(=O)(=O)N2Cc3cccnc3[C@@H]3CNC[C@H]3C2)c1 (relative stereo) [Example 336, Trans-6-[(3-methoxyphenyl)sulfonyl]-5,6,7,7a,8,9,10,10a-octahydropyrido[3,2-e]pyrrolo[3,4-e]azepine] | – | – | – | – | – |
| – | – | – | – | – | CN1C[C@@H]2CN(C)C(=O)c3cc(F)ccc3[C@H]2C1 [Example 163, (3aR,10bS)-8-Fluoro-2,5-dimethyl-1,2,3,3a,4,5-hexahydrobenzo[e]pyrrolo[3,4-c]azepin-6(10bH)-one] | > 120 | 60 | 20 | 800 | – |

| Compound | EC50 (5HT2C receptors; [1]) [nM] | Emax (5HT2C receptors; CHO-K1, read-out: Emax) [%] | EC50 (5HT2B receptors; [2]) [nM] | Emax (5HT2B receptors; [3]) | Emax (5HT2B receptors; [4]) [%] | Emax (5HT2C receptors; CHO-K1) [%] | EC50 (5HT2C receptors; EC50, 5-HT2C agonist activity) [nM] | Emax (5HT2B receptors; CHO-K1) [%] | EC50 (5HT2B receptors; EC50, 5-HT2B agonist activity) [nM] | Emax (5HT2C receptors) [%] |
| --- | --- | --- | --- | --- | --- | --- | --- | --- | --- | --- |
| Trans-8-(3-chloro-1H-pyrrol-2-yl)-2-methyl-2,3,3a,4,5,10b-hexahydropyrrolo[3,4-d][2]benzazepin-6(1H)-one and Trans-8-(5-chloro-1H-pyrrol-2-yl)-2-methyl-2,3,3a,4,5,10b-hexahydropyrrolo[3,4-d][2]benzazepin-6(1H)-one [Example 386] | 20 | – | > 10000 | inactive | – | – | – | – | – | 65 |
| O=C1NC[C@@H]2CNC[C@H]2c2ccc(OCc3ccccc3F)cc21 [Example 180, (3aS,10bR)-8-(2-Fluorobenzyloxy)-1,2,3,3a,4,5-hexahydrobenzo[e]pyrrolo[3,4-c]azepin-6(10bH)-one] | – | – | – | inactive | – | > 120 | – | – | > 10000 | – |
| CC(C)COc1ccc2c(c1)C(=O)NC[C@@H]1CNC[C@@H]21 (relative stereo) [Example 166, Trans-8-isobutoxy-1,2,3,3a,4,5-hexahydrobenzo[e]pyrrolo[3,4-c]azepin-6(10bH)-one] | – | – | – | inactive | – | > 120 | – | – | > 10000 | – |
| CN1C[C@@H]2CNC(=O)c3cc(OCc4ccccc4)ccc3[C@H]2C1 [Example 274, (3aS,10bS)-8-(Benzyloxy)-2-methyl-1,2,3,3a,4,5-hexahydrobenzo[e]pyrrolo[3,4-c]azepin-6(10bH)-one] | – | – | – | inactive | – | > 120 | 3 | – | > 10000 | – |
| O=C1NC[C@@H]2CNC[C@H]2c2ccc(OCCc3ccccc3)cc21 (relative stereo) [Example 123, Trans-8-phenethoxy-1,2,3,3a,4,5-hexahydrobenzo[e]pyrrolo[3,4-c]azepin-6(10bH)-one] | – | – | – | inactive | – | 120 | 10 | – | > 10000 | – |
| c1cnc2c(c1)[C@@H]1CNC[C@H]1CCO2 (relative stereo) [Example 264, Trans-2,3,3a,4,5,10b-hexahydro-1H-pyrrolo[3′,4′:4,5]oxepino[2,3-b]pyridine] | 1000 | – | 3000 | – | – | > 120 | – | 20 | – | – |
| O=S1(=O)NC[C@@H]2CNC[C@H]2c2ccccc21 (relative stereo) [Example 111, Trans-2,3,3a,4,5,10b-hexahydro-1H-pyrrolo[3,4-d][1,2]benzothiazepine 6,6-dioxide] | 6000 | – | > 10000 | – | – | 100 | – | 20 | – | – |
| c1cnc2c(c1)C1CNCC1CCO2 (mixture of isomers) [Example 260, 2,3,3a,4,5,10b-Hexahydro-1H-pyrrolo[3′,4′:4,5]oxepino[2,3-b]pyridine] | 1000 | – | 3000 | – | – | > 120 | – | 45 | – | – |

From patent US8846951B2 (AbbVie Inc., priority 2009, dated 2014)
